Measured values published in patent US10179174B2, “Method for inducing an immune response and formulations thereof” (priority 2011, dated 2019).

How the values were obtained:
CD4 = conditions: literature; cited from earlier work
HSV-1 virus = conditions: Peptide J alone; Taylor et al.; cited from earlier work
BM cells (iDCs) = assay: Flow cytometry phenotyping of BM cells (iDCs) incubated with LEAPS heteroconjugates or LPS; format: cell-based, BALB/c mice; conditions: 14.5 micromoles per well (about 10^6 cells), incubation 24, 48 or 72 hours

Substance: DGQEEKAGVVSTGLI (H-DGQEEKAGVVSTGLI-NH2) [CEL-1000, ICBL peptide derived from the β-chain of MHC II]
- binding to CD4 (CD4): bind to CD4

Substance: DLLKNGERIEKVE [J Peptide, ICBL derived from amino acids 38-50 of the β-2-microglobulin chain of the MHC I molecule]
- protection against infection (HSV-1 virus): does not induce protection against infection

Substance: lipopolysaccharide [LPS]
- upregulation for CD80, CD86 and MHC II compared to untreated cells (BM cells (iDCs)): significant upregulation
